# Laboratory results from ChEMBL document CHEMBL3286127, “Aminoadamantanes with persistent in vitro efficacy against H1N1 (2009) influenza A” (J Med Chem, 2014).
# pEC50: −log10 of the molar value. Active and inactive are the calls of the source. The rule behind the calls is not given here.
# What was measured:
# [1] = tested on: Influenza A virus; experiment: Antiviral activity against Influenza A virus A2/Taiwan/1/64(H2N2) infected in MDCK cells expressing wild type M2 after overnight incubation by fluorescence-based miniplaque assay; type: functional, organism-based
# [2] = tested on: Influenza A virus; experiment: Antiviral activity against Influenza A virus A/Victoria/3/75(H3N2) infected in MDCK cells expressing wild type M2 after overnight incubation by fluorescence-based miniplaque assay; type: functional, organism-based
# [3] = tested on: MDCK; experiment: Cytotoxicity against MDCK cells at 50 uM after 18 hrs; type: cell-based, Canis lupus familiaris; settings: dog
# [4] = tested on: Influenza B virus; experiment: Antiviral activity against Influenza B virus B/Russia/69 infected in MDCK cells at 50 uM; type: functional, organism-based
# [5] = tested on: HEK293; type: cell-based; settings: Influenza A virus (A/California/07/2009(H1N1)), 10 uM
# [6] = tested on: Bovine parvovirus; experiment: Antiviral activity against Bovine parvovirus infected in bovine embryonic cells at 50 uM; type: functional, cell-based
# [7] = tested on: MDCK; experiment: Cytotoxicity against MDCK cells at 5 uM after 18 hrs; type: cell-based, Canis lupus familiaris; settings: dog
Structure (SMILES),pEC50 [1],pEC50 [2],Activity [3],Activity [4],Activity [5],Activity [6],Activity [7]
CC(N)C12CC3CC(CC(C3)C1)C2 (centres undefined) [RIMANTADINE],5.80,6.28,Non-toxic,–,–,–,–
CC1(N)C2CC3CC(C2)CC1C3 (centres undefined),6.30,5.70,Non-toxic,inactive,–,–,–
NC1C2CC3CC(C2)CC1C3 (centres undefined),6.10,5.48,Non-toxic,inactive,–,–,–
CCCC1(N)C2CC3CC(C2)CC1C3 (centres undefined),> 6.62,4.64,Non-toxic,inactive,63%,inactive,–
CC(C)CC1(N)C2CC3CC(C2)CC1C3 (centres undefined),6.40,4.89,Non-toxic,–,–,–,–
CCCCC1(N)C2CC3CC(C2)CC1C3 (centres undefined),5.82,5.40,Non-toxic,–,–,–,–
CCC1(N)C2CC3CC(C2)CC1C3 (centres undefined),6.10,5.70,Non-toxic,inactive,–,–,–
CCCCCCC1(N)C2CC3CC(C2)CC1C3 (centres undefined),5.82,5.96,–,–,–,–,Non-toxic
NC1(c2ccccc2)C2CC3CC(C2)CC1C3 (centres undefined),6.70,5.10,Non-toxic,–,–,–,–
NC12CC3CC(CC(C3)C1)C2 [AMANTADINE],6.47,5.56,Non-toxic,–,–,–,–
NC1(Cc2ccccc2)C2CC3CC(C2)CC1C3 (centres undefined),6.70,4.74,Non-toxic,–,–,–,–
